This passage reports Ki results from BindingDB's records for doi:10.1016/0006-291x(92)90654-4 (Veterans Affairs Medical Center, 1992).

SMILES strings stand for the structures.

The target in the assay is 5-hydroxytryptamine receptor 1B (Homo sapiens, UniProt P28222).
Sequence of 5-hydroxytryptamine receptor 1B (P28222 whole entry): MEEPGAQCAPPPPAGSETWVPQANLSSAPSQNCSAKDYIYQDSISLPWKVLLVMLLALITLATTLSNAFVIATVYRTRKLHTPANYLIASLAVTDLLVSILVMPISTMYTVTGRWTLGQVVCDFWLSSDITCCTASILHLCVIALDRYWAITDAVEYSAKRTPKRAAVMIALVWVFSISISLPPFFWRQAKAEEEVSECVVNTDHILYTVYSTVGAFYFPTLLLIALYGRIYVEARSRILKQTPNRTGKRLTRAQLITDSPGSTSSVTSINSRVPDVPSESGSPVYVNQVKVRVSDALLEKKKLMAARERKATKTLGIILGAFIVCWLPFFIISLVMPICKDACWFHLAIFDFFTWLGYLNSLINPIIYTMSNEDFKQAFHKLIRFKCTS

In turn, `CN1C2CCC1CC(OC(=O)c1c[nH]c3ccccc13)C2` (stereo unspecified) displayed a Ki of over 10000 nM.

In turn, `COc1ccc2[nH]cc(C3=CCNCC3)c2c1` [5-Methoxy-3-(1,2,3,6-tetrahydro-pyridin-4-yl)-1H-indole(RU-24969)] yielded a Ki of 12.4 nM.

The molecule `CN1CC(C(=O)N[C@]2(C)O[C@@]3(O)C4CCCN4C(=O)[C@H](Cc4ccccc4)N3C2=O)CC2c3cccc4[nH]cc(c34)CC21` (stereo partly drawn) [7-Methyl-4,6,6a,7,8,9,10,10a-octahydro-indolo[4,3-fg]quinoline-9-carboxylic acid ((2R,5S,10bS)-5-benzyl-10b-hydroxy-2-methyl-3,6-dioxo-octahydro-oxazolo[3,2-a]pyrrolo[2,1-c]pyrazin-2-yl)-amide] had a Ki of 0.006 nM.

On to `O=C(CCCN1CCC2(CC1)C(=O)NCN2c1ccccc1)c1ccc(F)cc1` [8-[4-(4-fluorophenyl)-4-oxidanylidene-butyl]-1-phenyl-1,3,8-triazaspiro[4.5]decan-4-one], for which the Ki is over 10000 nM.

`CN1CCN(c2nc3cc(C(F)(F)F)ccc3n3cccc23)CC1` [CAS_109028-10-6] registered a Ki of 0.04 nM.

On to `CN1C[C@@H](NS(=O)(=O)N(C)C)C[C@@H]2c3cccc4c3c(cn4C)C[C@H]21` [MESULERGINE], for which the Ki was determined as 640 nM.

Consider `CC(C)(C)NCC(O)COc1cccc2[nH]c(C#N)cc12` (stereo unspecified) [NSC_155346], for which affinity was put at a Ki of 22 nM.

Consider `Cc1cc(C(C)(C)C)c(O)c(C)c1CC1=NCCN1` [SMR000059324], for which the Ki amounted to 0.26 nM.

In turn, `FC(F)(F)c1cccc(N2CCNCC2)c1` [TFMPP] yielded a Ki of 28 nM.

The molecule `Clc1cccc(N2CCNCC2)c1` [mCPP] yielded a Ki of 90 nM.

Molecule `CSc1ccc2c(c1)C(N1CCN(C)CC1)Cc1ccccc1S2` (stereo unspecified) [methanesulfonic acid;1-methyl-4-(3-methylsulfanyl-5,6-dihydrobenzo[b][1]benzothiepin-5-yl)piperazine] returned a Ki of 0.2 nM.

What is called Ki is a measure of affinity in units of concentration, obtained from inhibition or displacement. Lower therefore signals higher affinity.
